Converted amounts (≈) assume the structure as drawn. Peptide text beside a SMILES is read from it. * marks the point of attachment. Cbz = O=C(OCc1ccccc1)*; CH2F = FC*
Key:
MCF-7 cells [1] = test: Effect of PARP or caspase-9 inhibitor on the anticancer effect of doxorubicin with C-K or PPD; format: cell-based, human; settings: for anticancer activity of doxorubicin under PARP activity inhibitor with ginsenoside: 10 μg/mL ginsenoside and 5 μg/mL doxorubicin; for anticancer effect of doxorubicin in cells treated with the inhibitor: all control and experiment groups, 5 μg/mL doxorubicin 24 hours
Experimental: Specifically, a culture medium containing 10 μg/mL of C-K or PPD was added to MCF-7 cells already treated with Z-LEHD-FMK, an inhibitor of caspase-9, or 3-AB, an inhibitor of PARP, was cultured for 12 hours, and was then replaced with a culture medium containing 10 μg/mL of C-K or PPD and 0 g/mL or 5 μg/mL of doxorubicin, followed by 24 hours of culturing. Western blot analysis was performed using the cultured cells in the same manner as above (FIG. 3c).

MCF-7 cells [2] = test: Western blot of apoptosis-related proteins (pJNK, cleaved-PARP, cleaved-caspase-9); format: cell-based, human; settings: for level of cleaved-PARP, effect of ginsenoside treatment / level of cleaved-caspase-9, effect of ginsenoside treatment / level of pJNK, effect of ginsenoside treatment: 10 μg/mL ginsenoside with 5 μg/mL doxorubicin
Experimental: A culture medium containing 10 μg/mL of C-K or PPD was added to the MCF-7 cells, was cultured for 12 hours, and was then replaced with a culture medium containing 10 μg/mL of C-K or PPD and 0 g/mL or 5 μg/mL of doxorubicin, followed by 24 hours of culturing. The cultured cells were destroyed, and Western blot analysis was performed using a pJNK antibody, PARP antibody, cleaved-PARP antibody, caspase-9 antibody, or cleaved-caspase-9 antibody (FIG. 3a).
Accordingly, a culture medium containing 10 μg/mL of PPD was added to the MCF-7 cells, was cultured for 12 hours, and was then replaced with a culture medium containing 10 μg/mL of PPD and 5 μg/mL of doxorubicin, followed by 0, 0.5, 1, 2, 4, or 6 hours of culturing. Western blot analysis was performed using the cultured cells in the same manner as above (FIG. 3b). As a comparison group, cells cultured in a culture medium containing doxorubicin only was used instead of that containing both PPD and doxorubicin.

MCF-7 cells [3] = test: Cytochrome-C release from mitochondria, immunofluorescent staining; format: cell-based, human; settings: for increase in level of cytochrome-C release compared to doxorubicin alone / total cells from which cytochrome-C was released, ginsenoside and doxorubicin: 10 μg/mL ginsenoside 24 hours; for increase in level of cytochrome-C release compared to doxorubicin alone: then 5 μg/mL doxorubicin 4 hours; for total cells from which cytochrome-C was released, ginsenoside and doxorubicin: then 5 μg/mL doxorubicin
Experimental: A culture medium containing 10 μg/mL of C-K or PPD was added to MCF-7 cells, was cultured for 24 hours, and was then replaced with a culture medium containing 5 μg/mL of doxorubicin, followed by 0 or 4 hours of culturing. The cultured cells were fixed by adding 4% paraformaldehyde and were perforated by adding an 0.5% Triton X-100 solution, followed by 30 minutes of immunostaining using a cytochrome-C antibody. After staining, the cells were washed with PBS. Stained second antibodies were heated for 30 minutes and washed with PBS, followed by being recorded with a confocal microscope, to measure a level of fluorescence (FIG. 4a).
In this regard, whether the level of cytochrome-C release changes depending on treatment time of doxorubicin was investigated. In other words, a culture medium containing 10 μg/mL of C-K or PPD was added to MCF-7 cells, was cultured for 24 hours, and was then replaced with a culture medium containing 5 μg/mL of doxorubicin, followed by 0, 0.5, 1, 2, 4, or 6 hours of culturing. The immunofluorescent staining was performed in the same manner as previously described except the culturing time to measure the number of cytochrome-C released into cytoplasm from mitochondria (FIG. 4b). As a control group, an experiment group untreated with ginsenoside was used.

MCF-7 cells [4] = test: Western blot of mitochondrial fission- and fusion-related proteins; format: cell-based, human; settings: 10 μg/mL, 24 hours
Experimental: In this regard, Western blot analysis was performed for each cultured cell to compare an expression level of the mitochondrial fission-related proteins (Drp1, Fis1, or OPA-3) and mitochondrial fusion-related proteins (Mfn1. Mfn2, or OPA1) (FIG. 5b).

MCF-7 cells [5] = test: WST-1 viability of MCF-7 cells treated with PPD-type ginsenoside compounds; format: cell-based, human; settings: MCF-7, 0-200 μg/mL, 24 hours
Experimental: First, MCF-7 cells, a human breast cancer cell line, were inoculated in a DMEM culture medium containing 10% FBS and 1% penicillin/streptomycin, and were then cultured at conditions of 37° C. and 5% CO2. When the cultured MCF-7 cells were saturated, subculture thereof was followed in a three- to five-day interval.
The cultured MCF-7 cells were treated with the PPD-type ginsenoside compounds (F2, Rh2, C-K, or PPD) at various concentrations (0, 5, 10, 20, 50, 100, or 200 μg/mL) for 24 hours, and WST-1 analysis was then performed on the cells to measure viability thereof (FIG. 1). The WST-1 analysis was performed by inoculating each cell in a culture medium containing 10% EZ-Cytox and reacting at 37° C. for 1.5 hours, followed by measuring a level of water-soluble formazan dye produced by the viable cells as absorbance (450 nm) and analyzing the same to calculate the cell viability.

MCF-7 cells [6] = test: WST-1 viability of MCF-7 cells pretreated with ginsenoside, then treated with doxorubicin or tamoxifen; format: cell-based; settings: for effect on anticancer activity of doxorubicin / anticancer activity with doxorubicin compared to only doxorubicin: 10 μg/mL ginsenoside 12 hours; for effect on anticancer activity of doxorubicin: then 5 μg/mL doxorubicin 12 hours; for anticancer activity with doxorubicin compared to only doxorubicin: then doxorubicin 0-50 μg/mL 24 hours
Experimental: Specifically, 10 μg/mL of PPD-type ginsenoside compound (F2, Rh2, C-K, or PPD) was added to the MCF-7 cells and was cultured for 12 hours. 20 μM of tamoxifen or 5 μg/mL of doxorubicin was then treated, and 12 hours of culturing was performed. Upon completion of the culturing, viability of MCF-7 cells was compared via WST-1 analysis (FIG. 2a).
Accordingly, in order to investigate whether C-K or PPD has an effect on a treatment concentration of doxorubicin, 10 μg/mL of the PPD-type ginsenoside compound (C-K or PPD) was added and cultured for 12 hours. Doxorubicin at various concentrations (0, 0.1, 0.5, 1, 2, 5, 10, and 50 μg/mL) was then treated and cultured for 24 hours, followed by comparing viabilities of the MCF-7 cells and also comparing LC50 values calculated therefrom via WST-1 analysis (FIG. 2b).

MCF-7 cells [7] = test: Fluorescence staining of mitochondria with Tom-20; format: cell-based, human; settings: 10 μg/mL, 24 hours, Tom-20 staining
Experimental: In other words, a culture medium containing 10 μg/mL of C-K or PPD was added to MCF-7 cells and was cultured for 24 hours. The cultured cells were fixed by adding 4% paraformaldehyde and were perforated by adding a 0.5% Triton X-100 solution, followed by staining the mitochondria using Tom-20. The stained cells were washed with PBS and were recorded with a confocal microscope to measure a level of fluorescence (FIG. 5a).

MCF-7 cells [8] = test: WST-1 viability of siRNA-treated MCF-7 cells treated with doxorubicin or tamoxifen; format: cell-based, human; settings: siRNA-treated MCF-7, 5 μM doxorubicin or 20 μM tamoxifen, 24 hours
Experimental: Meanwhile, each synthesized siRNA was inoculated into MCF-7 cells and was cultured for 12 hours. The cells were again cultured in a standard culture medium in which siRNA is not contained for 48 hours, followed by treating with 5 μM doxorubicin or 20 μM tamoxifen and culturing for 24 hours. After culturing, viabilities of the MCF-7 cells were measured via WST-1 analysis (FIG. 6b). As a control group, cells cultured without treating with doxorubicin or tamoxifen were used.

[9] = 10 μg/mL PPD and 5 μg/mL doxorubicin, 0-6 hours

Row | Structure (SMILES) | anticancer activity of doxorubicin under PARP activity inhibitor with ginsenoside (MCF-7 cells [1]) | level of cleaved-PARP, effect of ginsenoside treatment (MCF-7 cells [2]; 24 hours) | level of cleaved-caspase-9, effect of ginsenoside treatment (MCF-7 cells [2]; 24 hours) | level of pJNK, effect of ginsenoside treatment (MCF-7 cells [2]; 24 hours) | increase in level of cytochrome-C release compared to doxorubicin alone (MCF-7 cells [3]) | total cells from which cytochrome-C was released, ginsenoside and doxorubicin (MCF-7 cells [3]; after 6 hours) | expression level of mitochondrial fission-related protein OPA-3 (MCF-7 cells [4]) | expression level of mitochondrial fusion-related protein Mfn2 (MCF-7 cells [4]) | anticancer activity against breast cancer cells (viability) (MCF-7 cells [5]) | effect on anticancer activity of doxorubicin (MCF-7 cells [6]) | anticancer activity with doxorubicin compared to only doxorubicin (MCF-7 cells [6]) | state of mitochondria compared to negative control group (MCF-7 cells [7]) | anticancer activity on cells with mitochondrial fission (MCF-7 cells [8]) | change of anticancer activity depending on siRNA (Mfn2 inhibited compared to Mfn1 inhibited) (MCF-7 cells [8]) | anticancer effect of doxorubicin in cells treated with the inhibitor (MCF-7 cells [1]) | further results
1 | CC(C)=CCC[C@](C)(O)[C@H]1CC[C@]2(C)[C@@H]1[C@H](O)C[C@@H]1[C@@]3(C)CC[C@H](O)C(C)(C)[C@@H]3CC[C@]12C [PPD, protopanaxadiol] | somewhat recovered | not affected | significantly increased | not affected | higher | 43% | increased | decreased | relatively excellent anticancer activity | could enhance an anticancer activity by doxorubicin | increased | damaged |  |  |  | formation of cleaved-PARP over time compared to doxorubicin only (MCF-7 cells [2]; [9]): faster; formation of cleaved-caspase-9 over time compared to doxorubicin only (MCF-7 cells [2]; [9]): faster
2 | COc1cccc2c1C(=O)c1c(O)c3c(c(O)c1C2=O)C[C@@](O)(C(=O)CO)C[C@@H]3O[C@H]1C[C@H](N)[C@H](O)[C@H](C)O1 [doxorubicin, reference compound] |  |  |  |  |  |  |  |  |  |  |  |  | significantly higher anticancer activity | significantly increased |  | level of cleaved-PARP (MCF-7 cells [2]; 5 μg/mL doxorubicin, 24 hours): increased; level of cleaved-caspase-9 (MCF-7 cells [2]; 5 μg/mL doxorubicin, 24 hours): increased; level of pJNK (MCF-7 cells [2]; 5 μg/mL doxorubicin, 24 hours): increased; level of cytochrome-C release compared to no doxorubicin (MCF-7 cells [3]; 5 μg/mL doxorubicin, 4 hours): increased; total cells from which cytochrome-C was released (MCF-7 cells [3]; only doxorubicin 5 μg/mL, after 6 hours): 7%; CC50 (MCF-7 cells [6]; Homo sapiens, MCF7, 24 h, read-out: LC50): ~10 µg/mL (≈ 18.4 µM)
3 | NC(=O)c1cccc(N)c1 [PARP inhibitor, 3-AB, reference compound] |  |  |  |  |  |  |  |  |  |  |  |  |  |  | inhibited | 
4 | COC(=O)CC[C@H](NC(=O)[C@H](CC(C)C)NC(=O)OCc1ccccc1)C(=O)N[C@@H](Cc1cnc[nH]1)C(=O)N[C@@H](CC(=O)OC)C(=O)CF [caspase-9 inhibitor, Z-LEHD-FMK, reference compound] (Cbz-LE(OMe)HD(OMe)-CH2F) |  |  |  |  |  |  |  |  |  |  |  |  |  |  | inhibited | 
5 | CC/C(=C(\c1ccccc1)c1ccc(OCCN(C)C)cc1)c1ccccc1 [tamoxifen] |  |  |  |  |  |  |  |  |  |  |  |  | showed the anticancer activity | no difference |  | 
6 | CC(C)=CCC[C@](C)(O[C@@H]1OC(CO)[C@@H](O)C(O)C1O)C1CC[C@]2(C)C1[C@H](O)CC1[C@@]3(C)CCC(O)C(C)(C)C3CC[C@]12C (some centres unmarked) [C-K, compound-K] | somewhat recovered | not affected | noticeably increased | not affected | higher | 20% | increased | decreased | relatively excellent anticancer activity | could enhance an anticancer activity by doxorubicin | increased | damaged |  |  |  | 

— patent publication US10398710B2, “Method for screening regulator of mitochondrial fission” (priority 2015, dated 2019)
